The IC50 is the concentration needed to halve the response being measured. The low end stands for greater potency in that assay, the high end for weaker potency in that assay.

Among the data in patent publication US10246456B2, “IRAK4 inhibiting agents” (BIOGEN MA INC., priority 2014, dated 2019) are IC50 values, retold here.

The target in the test is IRAK4 (Homo sapiens (Human), UniProt Q9NWZ3). Nature of the test: IRAK-4 AlphaScreen biochemical kinase assay. The conditions noted are these: 1 nM IRAK4, 1 mM ATP, 3.5 h at RT. Summed up: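 AlphaScreen read-out: streptavidin beads bind the biotinylated peptide and protein A beads bind the anti-phosphothreonine antibody, so energy transfer reports phosphorylation of the peptide. The kinase is human IRAK-4.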
In general terms: Bead proximity is the source of the signal in Alpha formats.

A value given as a limit tells only on which side of the number the result lay.

Sequence of IRAK4 (Q9NWZ3 whole entry, species assumed): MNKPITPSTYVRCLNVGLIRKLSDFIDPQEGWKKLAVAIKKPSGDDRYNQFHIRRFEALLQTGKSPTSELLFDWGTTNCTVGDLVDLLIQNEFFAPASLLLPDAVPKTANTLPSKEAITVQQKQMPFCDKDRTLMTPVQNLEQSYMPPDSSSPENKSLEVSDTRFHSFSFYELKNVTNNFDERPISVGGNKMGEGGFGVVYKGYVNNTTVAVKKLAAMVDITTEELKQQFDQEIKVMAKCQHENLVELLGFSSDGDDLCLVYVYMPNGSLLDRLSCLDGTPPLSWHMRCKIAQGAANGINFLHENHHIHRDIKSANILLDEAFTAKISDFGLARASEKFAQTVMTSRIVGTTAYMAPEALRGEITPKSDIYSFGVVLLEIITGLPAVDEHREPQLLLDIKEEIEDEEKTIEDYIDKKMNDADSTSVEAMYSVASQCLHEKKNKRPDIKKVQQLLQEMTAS

The compound `CNc1cc(-c2cccc(/C(C)=N\O)n2)cc2c1cnn2-c1cccc(C)n1` [Example 227, (Z)-1-(6-(4-(methylamino)-1-(6-methylpyridin-2-yl)-1H-indazol-6-yl)pyridin-2-yl)ethanone oxime] showed an IC50 of 1000 to 10000 nM.

On to `CCc1cccc(-n2ncc3ccc(-c4cccc(C(C)=O)n4)cc32)n1` [Example 228, 1-(6-(1-(6-ethylpyridin-2-yl)-1H-indazol-6-yl)pyridin-2-yl)ethanone], for which the IC50 lay in the range of 100 to 1000 nM.

`CC(=O)c1cccc(-c2ccc3cnn(-c4ccccn4)c3c2)n1` [Example 229, 1-(6-(1-(pyridin-2-yl)-1H-indazol-6-yl)pyridin-2-yl)ethanone] gave an IC50 of 1000 to 10000 nM.

Take `C/C(=N\O)c1cccc(-c2ccc3cnn(-c4ccccn4)c3c2)n1` [Example 230, (E)-1-(6-(1-(pyridin-2-yl)-1H-indazol-6-yl)pyridin-2-yl)ethanone oxime]: the IC50 is over 10000 nM.

With `Cc1cccc(-n2ncc3ccc(-c4cc(N)cc(CN)n4)cc32)n1` [Example 231, 2-(aminomethyl)-6-(1-(6-methylpyridin-2-yl)-1H-indazol-6-yl)pyridin-4-amine], the half-inhibitory concentration (IC50) is under 100 nM.

The compound `Cc1cccc(-n2ncc3ccc(-c4cccc(C(C)N(C)C)n4)cc32)n1` (stereo not drawn) [Example 232, N,N-dimethyl-1-(6-(1-(6-methylpyridin-2-yl)-1H-indazol-6-yl)pyridin-2-yl)ethanamine] gave an IC50 of 100 to 1000 nM.

The compound `CC(=O)c1cccc(-c2cc(N(C)C)c3cnn(-c4cccc(C)n4)c3c2)n1` [Example 233, 1-(6-(4-(dimethylamino)-1-(6-methylpyridin-2-yl)-1H-indazol-6-yl)pyridin-2-yl)ethanone] showed an IC50 of 1000 to 10000 nM.

In turn, `C/C(=N\O)c1cccc(-c2cc(N(C)C)c3cnn(-c4cccc(C)n4)c3c2)n1` [Example 234, (E)-1-(6-(4-(dimethylamino)-1-(6-methylpyridin-2-yl)-1H-indazol-6-yl)pyridin-2-yl)ethanone oxime] returned an IC50 of 100 to 1000 nM.

With `CCc1cccc(-n2ncc3ccc(-c4cccc(/C(C)=N/O)n4)cc32)n1` [Example 235, (E)-1-(6-(1-(6-ethylpyridin-2-yl)-1H-indazol-6-yl)pyridin-2-yl)ethanone oxime], the IC50 was 1000 to 10000 nM.

Take `CC(=O)c1cccc(-c2ccc3cnn(-c4cccc(C#N)n4)c3c2)n1` [Example 236, 6-(6-(6-acet6ylpyridin-2-yl)-1H-indazol-1-yl)picolinonitrile]: the IC50 was over 10000 nM.

With `COC(=O)c1cccc(-n2ncc3ccc(-c4cccc(/C(C)=N/O)n4)cc32)n1` [Example 237, (E)-methyl 6-(6-(6-(1-(hydroxyimino)ethyl)pyridin-2-yl)-1H-indazol-1-yl)picolinate], the IC50 is over 10000 nM.

`CC(=O)c1cccc(-c2ccc3cnn(-c4nc(C)cs4)c3c2)n1` [Example 239]: the IC50 is over 10000 nM.

For `CC(N)c1cccc(-c2cc(F)c3cnn(-c4cccc(C(F)(F)F)n4)c3c2)n1` (stereo not drawn) [Example 240, 1-(6-(4-fluoro-1-(6-(trifluoromethyl)pyridin-2-yl)-1H-indazol-6-yl)pyridin-2-yl)ethanamine], the IC50 is under 100 nM.

`Cc1cccc(-n2ncc3ccc(-c4ccc(F)c(C(C)N)n4)cc32)n1` (stereo not drawn) [Example 242, 1-(3-fluoro-6-(1-(6-methylpyridin-2-yl)-1H-indazol-6-yl)pyridin-2-yl)ethanamine] returned an IC50 of under 100 nM.

Compound `COC(=O)c1nc(-c2ccc3cnn(-c4cccc(C)n4)c3c2)ccc1N` [Example 243, methyl 3-amino-6-(1-(6-methylpyridin-2-yl)-1H-indazol-6-yl)picolinate] gave an IC50 of 1000 to 10000 nM.

On to `Cc1cccc(-n2ncc3ccc(-c4cccc(C(O)C(F)(F)F)n4)cc32)n1` (stereo not drawn) [Example 244, 2,2,2-trifluoro-1-(6-(1-(6-methylpyridin-2-yl)-1H-indazol-6-yl)pyridin-2-yl)ethanol], for which the IC50 was in the range of 100 to 1000 nM.

Turning to `CCOc1cc(-c2cccc(C(C)N)n2)cc2c1cnn2-c1cccc(C)n1` (stereo not drawn) [Example 245, 1-(6-(4-ethoxy-1-(6-methylpyridin-2-yl)-1H-indazol-6-yl)pyridin-2-yl)ethanamine], the IC50 was under 100 nM.

In turn, `COc1cc(-c2cccc(C(C)N)n2)cc2c1cnn2-c1cccc(C)n1` (stereo not drawn) [Example 246, 1-(6-(4-methoxy-1-(6-methylpyridin-2-yl)-1H-indazol-6-yl)pyridin-2-yl)ethanamine] showed an IC50 of under 100 nM.

Compound `Cc1cccc(-n2ncc3ccc(-c4cccc(C(N)CCO)n4)cc32)n1` (stereo not drawn) [Example 247, 3-amino-3-(6-(1-(6-methylpyridin-2-yl)-1H-indazol-6-yl)pyridin-2-yl)propan-1-ol] returned an IC50 of under 100 nM.

In the case of `Cc1cccc(-n2ncc3ccc(-c4cccc(C(N)=O)n4)cc32)n1` [Example 248, 6-(1-(6-methylpyridin-2-yl)-1H-indazol-6-yl)picolinamide], the IC50 lay in the range of 100 to 1000 nM.

In turn, `Cc1cccc(-n2ncc3ccc(-c4cccc(CC#N)n4)cc32)n1` [Example 249, 2-(6-(1-(6-methylpyridin-2-yl)-1H-indazol-6-yl)pyridin-2-yl)acetonitrile] yielded an IC50 of 100 to 1000 nM.

`Cc1cccc(-n2ncc3c(O)cc(-c4cccc(C(C)N)n4)cc32)n1` (stereo not drawn) [Example 250, 6-(6-(1-aminoethyl)pyridin-2-yl)-1-(6-methylpyridin-2-yl)-1H-indazol-4-ol] had a concentration for half-maximal inhibition (IC50) of under 100 nM.

`Cc1cccc(-n2ncc3c(OCC4CC4)cc(-c4cccc(C(C)N)n4)cc32)n1` (stereo not drawn) [Example 251] came in with an IC50 of 100 to 1000 nM.

`Cc1cccc(-n2ncc3ccc(-c4csc(CN)n4)cc32)n1` [Example 252, (4-(1-(6-methylpyridin-2-yl)-1H-indazol-6-yl)thiazol-2-yl)methanamine] displayed an IC50 of 100 to 1000 nM.

Compound `CC(=O)NCc1cccc(-c2ccc3cnn(-c4cccc(C)n4)c3c2)n1` [Example 253, N-((6-(1-(6-methylpyridin-2-yl)-1H-indazol-6-yl)pyridin-2-yl)methyl)acetamide] returned an IC50 of 1000 to 10000 nM.

For the compound `Cc1cccc(-n2ncc3ccc(-c4cccc(CCN)n4)cc32)n1` [Example 254, 2-(6-(1-(6-methylpyridin-2-yl)-1H-indazol-6-yl)pyridin-2-yl)ethanamine], the IC50 was 100 to 1000 nM.

In the case of `Cc1cccc(-n2ncc3ccc(-c4ccc(C(F)(F)F)c(C(C)N)n4)cc32)n1` (stereo not drawn) [Example 255, 1-(6-(1-(6-methylpyridin-2-yl)-1H-indazol-6-yl)-3-(trifluoromethyl)pyridin-2-yl)ethanamine], the IC50 is 100 to 1000 nM.

As for `Cc1cccc(-n2ncc3ccc(-c4cc(N)cc(C(C)N)n4)cc32)n1` (stereo not drawn) [Example 256, 2-(1-aminoethyl)-6-(1-(6-methylpyridin-2-yl)-1H-indazol-6-yl)pyridin-4-amine], the IC50 was under 100 nM.

With `Cc1cccc(-n2ncc3ccc(-c4cn(C)c(CO)n4)cc32)n1` [Example 257, (1-methyl-4-(1-(6-methylpyridin-2-yl)-1H-indazol-6-yl)-1H-imidazol-2-yl)methanol], the IC50 is under 100 nM.

Consider `Cc1cccc(-n2ncc3ccc(-c4cccc(C(N)C#N)n4)cc32)n1` (stereo not drawn) [Example 258, 2-amino-2-(6-(1-(6-methylpyridin-2-yl)-1H-indazol-6-yl)pyridin-2-yl)acetonitrile], for which the IC50 lay in the range of 100 to 1000 nM.
